Experiments:
Format in all cases: in vivo
[1] = tested on: hairy wart and foot rot; assay: Hoof spray of lactating cows: lameness, hairy wart and foot rot
[2] = tested on: turkeys; assay: Turkey mortality with water additive, flocks of 50,000 turkeys; set-up: mortality cumulative total per group: concentration or dose not given beside the values
Text: The mortality of the flock of 50,000 turkeys that consumed water with chlorine dioxide was 6.5% as compared to 3% for a flock of 50,000 turkeys consuming water with W+. The y-axis of FIG. 13 represents the cumulative total mortality (%), and the x-axis represents a 19-week period during which the turkeys were observed. The top dotted line represents a flock (of 50,000 turkeys) with chlorine dioxide added to their water. The middle dotted line represents a flock (of 50,000 turkeys) that for four weeks consumed water treated with chlorine dioxide (5 ppm). After four weeks, the water additive was changed to W+ diluted 1:10,000 (note the reduced slope of the mortality curve at week 5). The bottom solid line represents a flock (of 50,000 turkeys) that was fed water with W+.

[3] = tested on: Clostridial scours; assay: Swine gut health: scours on test farm; conditions: total population of 3,850 swine; chlorine dioxide standard water protocol, then W+ 1:6,000 in water lines
Protocol: Scours (dysentery) is a common ailment in swine and is symptomatic of poor gut health (gastrointestinal tract health). […] Column (B) is the number of swine (397) that were infected with scours while on a standard water protocol of chlorine dioxide to prevent biofilm in the water lines. The addition of chlorine dioxide was stopped and W+ (at a dilution of 1:6,000) was added to the water lines, the number of swine with scours was reduced to 23 (Column (C)), a 94% reduction in the number of swine with Clostridial scours.

[4] = tested on: turkeys; assay: Turkey weight versus barn standard and mortality, six barns
Text: A common practice among commercial turkey growing facilities is to compare the weight gain of their flocks against a standard that is based on the performance of the grower's previous flocks. The grower has a standard for each barn, or group of barns, based on their recorded history. […] The flocks in the barns being fed W+ in their water (Barns-055, Barn-043, and Barn-025) exceeded standard weights by 11.7%, while the barns where the turkeys were fed water with chlorine dioxide (Barns-041, Barn-047, and Barn-045) were −7.6% compared to standard weights. The y-axis represents % deviation from a standard (Std)(average for each barn), and the x-axis represents data obtained from turkeys in six different barns (approximately 17,000 turkeys per barn).

[5] = tested on: Mastitis; assay: Teat spray of lactating dairy cows: somatic cell count and Mastitis; conditions: 210 lactating cows
Text: The efficacy of iodine versus D+t128 in reducing the presence of Mastitis was studied. […] 210 lactating dairy cows were milked twice a day for four weeks. The somatic cell count (SCC) of the herd at the beginning of the test period was 263,000/ml, as shown in the two right-hand columns of the top panel of FIG. 21. The standard protocol using iodine was as follows: prior to each milking, the teats of the dairy cows were sprayed with 0.5% iodine. After each milking, the teats of the dairy cows were sprayed with 1.0% iodine. Mastitis was evident on 27 of the cows (see bottom panel of FIG. 21). Treatment with iodine was then stopped, and D+t128 was used to treat the teats of the cows. Prior to each milking, the teats of the dairy cows were sprayed with 1.25 ounces of D+t128 at a dilution of 1:128. After each milking, the teats of the dairy cows were sprayed with 1.25 ounces of D+t128 at a dilution of 1:128. At the end of the test period, the SSC had decreased from 263,000/ml to 120,000/ml in the herd treated with D+t128 (see two right-hand columns of the top panel of FIG. 21). The lower the SSC, the healthier the cow; the lower SSC reading correlates with the reduced number of cows with Mastitis. The number of cows with Mastitis had decreased from 27 to 12 (see two right-hand columns of bottom panel of FIG. 21). The SSC values are an average of all milk obtained from the 210 lactating cows. […]

Compound: O=S(=O)([O-])[O-].[Cu+2] [Copper-Sulphate]
- percentage of lame cows ([1]; herd of 500 lactating cows, Copper-Sulphate spray = T0 start, D+h100 1:100 spray = day 35): over 35%
- cows with swelling indicating new hairy wart formation ([1]; start of test period, prior Copper-Sulphate spray, data not shown): 60%

Compound: [O][Cl+][O-] [chlorine dioxide]
- mortality cumulative total per group ([2]; Week 1): 0.74%
- mortality cumulative total per group ([2]; Week 2): 1.45%
- mortality cumulative total per group ([2]; Week 3): 1.84%
- mortality cumulative total per group ([2]; Week 4): 2.15%
- mortality cumulative total per group ([2]; Week 5): 3.52%
- mortality cumulative total per group ([2]; Week 6): 3.97%
- mortality cumulative total per group ([2]; Week 7): 4.22%
- mortality cumulative total per group ([2]; Week 8): 4.46%
- mortality cumulative total per group ([2]; Week 9): 4.62%
- mortality cumulative total per group ([2]; Week 10): 4.79%
- mortality cumulative total per group ([2]; Week 11): 5.01%
- mortality cumulative total per group ([2]; Week 12): 5.14%
- mortality cumulative total per group ([2]; Week 13): 5.29%
- mortality cumulative total per group ([2]; Week 14): 5.46%
- mortality cumulative total per group ([2]; Week 15): 5.63%
- mortality cumulative total per group ([2]; Week 16): 5.82%
- mortality cumulative total per group ([2]; Week 17): 6.05%
- mortality cumulative total per group ([2]; Week 18): 6.29%
- mortality cumulative total per group ([2]; Week 19): 6.54%
- mortality cumulative total per group ([2]; Week 20): 6.84%
- mortality cumulative total per group ([2]; Week 21): 6.74%
- mortality of the flock (cumulative total) ([2]; flock of 50,000 turkeys, FIG. 13, 19-week period, W+ 1:10,000, chlorine dioxide 5 ppm in water): 6.5%
- number of swine infected with scours [3]: 397
- mortality rate (average) ([4]; FIG. 23, turkeys fed water with additive): 12.3%
- deviation from standard weights ([4]; three barns per water additive, approximately 17,000 turkeys per barn, FIG. 14): −7.6%

Compound: II [iodine]
- somatic cell count (SCC) of the herd ([5]; iodine protocol = beginning of test period, D+t128 1:128 teat spray before and after each milking = end of 28-day test period): 263,000 /ml
- number of cows with Mastitis ([5]; iodine protocol = start, D+t128 1:128 = finish of 28-day test period): 27

Reference: patent publication US20180325117A1, “PROBIOTIC COMPOSITIONS AND USES THEREOF” (priority 2015, published 2018)
